# US11299472B2, “Fumarate salt of (R)-3-(1-(2,3-dichloro-4-(pyrazin-2-yl)phenyl)-2,2,2- trifluoroethyl)-1-methyl-1-(1-methylpiperidin-4-yl) urea, methods of preparation, and uses thereof” (Helsinn Healthcare SA, priority 2017, dated 2022)
# Experiments:
# human GHSR1a receptor = target: T1, human GHSR1a receptor (Homo sapiens, UniProt Q92847); experiment: Inositol 1 phosphate (IP-1) inverse agonist assay; format: cell-based; conditions: IP-1 assay
# T1 construct: expressed in transfected cells; host or cells: HEK293
# Method: The compounds were diluted with 100% DMSO to make 30 mM stock. On the test day, serial dilutions were prepared starting from the stock solution. For the FLIPR assay: 1) 8 μl of DMSO was added to 2 μl of compound stock solution (30 mM) to produce 10 μl of 6 mM solution; half-fold serial dilutions of the 6 mM solution were produced to generate ten doses; 2) test solutions were obtained by diluting the stock solutions 1/40 in assay buffer (DMSO concentration 2.5%). For the IP-1 assay: 1) 29 μl of DMSO was added to 1 μl of compound stock solution (30 mM) to produce 30 μl of 1 mM solution; half-fold serial dilutions of the 1 mM solution were produced to generate 10 doses; 2) test solutions were obtained by diluting the stock solutions 1/100 in assay buffer (DMSO final concentration 1%).
# For the inverse agonist activity study, the same procedure described above was followed up to the day of the test. On the test day, the medium was removed by centrifuging at 700 rpm for 30 seconds and 20 μl/well of assay buffer containing the HM04 or R011 was added. The assay plates were incubated at 37° C. in the dark for 1 hour. IP1-d2 (5 μl) and AB-Cryp (5 μl) were sequentially added to all wells using multidrop Combi. The plate was incubated at room temperature for 1 hour and read on EnVision at 620 nm and 665 nm.
# [1] = test system: ghrelin-induced increase of GH; experiment: Ghrelin-induced increase of growth hormone in rats; format: in vivo; conditions: 30 mg/kg HM04 fumarate salt p.o. 2 hours before 15 μg/kg ghrelin i.v., 15 minutes after ghrelin
# Method: Rats were divided into four groups: 1) 1 ml/kg saline plus 10 ml/kg 0.5% CMC p.o. (n=6); 2) 15 μg/kg ghrelin i.v. plus 10 ml/kg 0.5% CMC p.o. (n=6); 3) 30 mg/kg HM04 fumarate salt p.o. 2 hours before 15 μg/kg ghrelin i.v. (n=6); 4) 10 mg/kg ghrelin antagonist R011 i.p. 30 minutes before 15 μg/kg ghrelin i.v. (n=6). Blood was collected as 100 μl samples at time 0 and at 15 minutes after ghrelin injection. Rats were anesthetized with 64.8 mg/kg sodium pentobarbital. A catheter filled with heparinized saline solution was inserted in the left femoral artery for blood collection and fitted with an extension tube, 1-mL sampling syringe, and a 3-way cock to allow excess blood to return.
# Plasma levels of growth hormone (GH) were determined using Rat GH ELISA (Millipore, Catalog No. EZRMGH-45K). Measurements were performed in duplicate. […] One-way and two-way ANOVA test was used to compare differences between groups. All values are presented as mean±SEM. One-way ANOVA was performed followed by Turkey's post hoc test where significance was indicated by p values<0.05 or p values<0.01.
# [2] = test system: Snord116+/− (Het) mice and wild-type (WT) littermates; experiment: Food intake and body weight after daily administration in Prader-Willi mouse model; format: in vivo
# From the text: The effect of HM04 fumarate salt on food intake behavior and glucose tolerance was investigated in the Snord116+/−(Het) mouse genetic model of Prader-Willi syndrome (Het mouse) compared to wild-type (WT) littermates. Since D2R agonists suppress food intake, the FDA approved D2R agonist cabergoline was used as an experimental control. Phenotypic characteristics of this PWS mouse model include hyperphagia, postnatal growth retardation, high ghrelin, and low growth hormone. Ding F., et al. SnoRNA Snord116 (Pwcr1/MBII-85) deletion causes growth deficiency and hyperphagia in mice. PloS one. 2008; 3(3):e1709. These PWS mice eat more frequently than WT littermates, particularly during the light cycle and are more motivated to work for food (more level presses) (data not shown).
# Food intake and body weight were measured daily.
# [3] = 6-month-old Het mice, HM04 10 mg/kg i.p. daily at 07.00 hours for 10 days
# [4] = 6-month-old WT mice, HM04 10 mg/kg i.p. daily at 07.00 hours for 10 days
# [5] = 8-month-old Het mice, HM04 30 mg/kg oral daily at 07.00 hours for 5 days
# [6] = 8-month-old Het mice, HM04 30 mg/kg oral daily at 18.00 hours for 5 days
# [7] = 8-month-old WT mice, HM04 30 mg/kg oral daily at 07.00 hours for 5 days
# T1 sequence (Q92847 whole entry): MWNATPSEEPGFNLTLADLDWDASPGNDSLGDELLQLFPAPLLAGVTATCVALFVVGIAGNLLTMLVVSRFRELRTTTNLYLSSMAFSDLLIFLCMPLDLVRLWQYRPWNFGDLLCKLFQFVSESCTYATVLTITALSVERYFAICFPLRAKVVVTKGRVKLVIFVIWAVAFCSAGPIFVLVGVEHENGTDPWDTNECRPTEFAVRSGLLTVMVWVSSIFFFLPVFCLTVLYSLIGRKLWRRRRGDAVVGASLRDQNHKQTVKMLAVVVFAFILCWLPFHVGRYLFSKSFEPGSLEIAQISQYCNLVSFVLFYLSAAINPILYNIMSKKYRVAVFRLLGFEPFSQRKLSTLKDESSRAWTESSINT
smiles,measurement,setting,value
"CN1CCC(N(C)C(=O)N[C@H](c2ccc(-c3cnccn3)c(Cl)c2Cl)C(F)(F)F)CC1 [HM04, (R)-3-(1-(2,3-dichloro-4-(pyrazin-2-yl)phenyl)-2,2,2-trifluoroethyl)-1-methyl-1-(1-methylpiperidin-4-yl)urea]",inverse agonist activity,human GHSR1a receptor,did not show a clear significant inverse agonist activity
same,inhibition of ghrelin-induced increase of GH,[1],35%
same,body weight,[2]; [3],no apparent effect
same,food intake,[2]; [3],no apparent effect
same,body weight,[2]; [4],no apparent effect
same,food intake,[2]; [4],no apparent effect
same,body weight,[2]; [5],unaffected
same,food intake,[2]; [5],"significant decrease in food intake was observed by day 2, but not on subsequent days"
same,food consumption during the dark cycle,[2]; [6],suppression of food consumption was not observed
same,food intake during the subsequent light cycle (06.00-18.00),[2]; [6],"food intake was lower in HM04-treated Het mice, but not WT mice on days 2, 3, 4, and 5 and reached significance on day 5"
same,body weight,[2]; [7],No reduction in food intake or body weight
same,food intake,[2]; [7],No reduction in food intake
same,food consumption during the dark cycle,"[2]; 8-month-old WT mice, HM04 30 mg/kg oral daily at 18.00 hours for 5 days",suppression of food consumption was not observed
